Patent US20250339531A1, “DUX4 POLYPEPTIDES AND NUCLEIC ACIDS FOR TREATING INFLAMMATORY AND AUTOIMMUNE CONDITIONS” (Fred Hutchinson Cancer Center, priority 2021, published 2025)
Entries after “also recorded” stand apart in the source; their conditions may differ.

Assays:
STAT1 = assay: Anti-FLAG co-immunoprecipitation and western blot for STAT1; format: binding, human; details: anti-FLAG IP from MB135 cells ± IFNG
Experimental: Centrifugation at 2500 rcf at 4° C. for 5 min pelleted the nuclei, supernatant was discarded, and nuclei resuspended in 1 mL IP buffer pH 7.4 (25 mM Tris-HCl pH 7.5, 175 mM NaCl, 1 mM EDTA, 0.2% NP-40, 5% glycerol) and incubated for 1 hour at 4° C. with rotation then spun at 21000 rcf for 10 minutes at 4° C. to pellet insoluble debris. Protein concentration was determined using the Pierce BCA Protein Assay Kit (ThermoFisher, 23225). An equivalent amount of protein per sample was pre-cleared with Dynabeads Protein G (Invitrogen) bound to mouse IgG (Abcam #131368) for 1 hour at 4° C. with rotation. FLAG-tagged constructs were then immunoprecipitated with Dynabeads Protein G beads coupled to mouse anti-FLAG M2 mAb (Sigma F3165) for 3 hours at 4° C. with rotation. Beads were washed 3× with 1 mL IP buffer and eluted by adding 2× NuPage LDS Sample Buffer (Thermo Fisher, diluted from 4× with PBS) to the beads and heating for 10 minutes at 70° C.
Antibodies against STAT1 [EPR4407] (ab109320), pSTAT1 Y701 [M135] (ab29045), pSTAT1 S727 [EPR3146] (ab109461), YBX1 [EP2708Y] (ab76149), PABPC1 (ab21060), hnRNPM [EPR13509 (B)] (ab177957), PRKDC [Y393] (ab32566), and HSP90AB1 [EPR16621] (ab203085) were purchased from Abcam. Antibodies against FLAG tag [M2] (F1804) and [M2] (F3146) were purchased from Sigma Aldrich. Antibodies against DDX3X [D19B4] (8192S), hnRNPK [R332] (4675S), TRIM28 [C42G12] (4124S), PPP2R1A [81G5] (2041S), NCL [D4C70] (14574S), and MYC tag [71D10] (2278S), and IDO1 [D5J4E] (86630S) were purchased from Cell Signaling Technology. Antibodies against hnRNPU (14599-1-AP), CDK4 (11026-1-AP), and HAT1 (11432-1-AP) were purchased from ProteinTech. The antibody against HSPA8 [SR39-04] (PIMA532002) was purchased from ThermoFisher. The antibody against DUX4 (P2G4) was described previously (Geng et al., 2011, Immunodetection of human double homeobox 4. Hybridoma (Larchmt) 30, 125-130). The antibodies Goat anti-Rabbit IgG HRP (ThermoFisher, A27036) and Rat anti-Mouse IgG HRP for IP (Abcam, ab131368) were used as secondary antibodies against rabbit and mouse primary antibodies for western blotting.

[1] = tested on: translational efficiency (TE); assay: Ribosome footprinting (Ribo-seq) paired with RNA-seq; format: cell-based, human; details: DUX4 pulse+IFNG versus IFNG, 68 hours
Experimental: Ribo-seq was performed as described previously (Calviello et al., 2016) using two 70% confluent 15 cm plates of MB135iDUX4 myoblasts per treatment condition (n=3). MB135iDUX4 myoblasts were pulsed with or without doxycycline for 4 hours, incubated for 48 hours, supplemented with or without 50 ng/mL IFNG for 16 hours, and harvested at a terminal time point of 68 hours. To harvest, media was aspirated and each 15 cm plate of adherent cells was rinsed with 25 mL ice-cold PBS supplemented with 100 μg/mL cycloheximide (Sigma). After thorough removal of the PBS, plates were immersed in liquid nitrogen and placed on dry ice. Cells were lysed in mammalian polysome lysis buffer (20 mM Tris-HCl, pH 7.4, 150 mM NaCl, 5 mM MgCl2, 1 mM DTT, 100 μg/mL cycloheximide added fresh) supplemented with 1% Triton X-100 and 25 U/ml Turbo DNase (Ambion), transferred to wet ice, harvested by scraping and further lysed by trituration ten times through a 26-gauge needle. Lysates were cleared by centrifugation at 20,000×g for 10 min at 4° C., flash frozen in liquid nitrogen, and stored at −80° C. To isolate ribosome-protected RNA fragments, lysates were thawed, digested with 2.5 U/μL RNase I (Ambion) for 45 minutes at room temperature with gentle mixing, and treated with 0.65 U/μL SUPERaseIn RNase Inhibitor (Thermo Fisher Scientific) to stop nuclease activity. Ribosome complexes were isolated using MicroSpin S-400 HR Columns (GE Healthcare) and RNA extracted using the Direct-zol RNA Miniprep Kit (Zymo Research). The rRNA Removal Mix—Gold component of Illumina's TruSeq Stranded Total RNA Library Prep Gold kit was used to deplete rRNAs. Samples were precipitated using GlycoBlue Coprecipitant (Ambion) as carrier, 0.1 volume 3M sodium acetate and 3 volumes 100% Ethanol, incubated at −80° C. overnight, centrifuged for 45 minutes at 20,000×g at 4° C., and RNA pellet dissolved in nuclease-free ultrapure water. Ribosome-protected fragments were isolated by running samples on a 15% TBE-Urea gel with 10 bp DNA Ladder (Promega) and Marker-27nt and Marker-30nt (data not shown). […]

Row | Substance | co-immunoprecipitation with STAT1 / phosphorylated STAT1 (STAT1; listed as DUX4-CTD) | co-immunoprecipitation with STAT1 / phosphorylated STAT1 (STAT1; listed as DUX4 CTD) | co-immunoprecipitation with STAT1 / phosphorylated STAT1 (STAT1; listed as DUX4 longCTD) | transcripts with significantly reduced TE at the 5′UTR [1] | transcripts with significantly reduced TE at the TSS [1] | transcripts with significantly reduced TE within the first exon [1]
1 | longCTD: 3×FLAG tag and nls in frame with carboxyterminal 271 amino acids of DUX4 (aa154-424), SEQ ID NOS: 8-9 | phosphorylation at Y701 is necessary for enhanced interaction; also recorded: preferentially interacts with pSTAT1-Y701 | showed stronger interaction with phosphorylated STAT1 | both show binding to STAT1; also recorded: STAT1 is associated |  |  | 
2 | DUX4: human DUX4 protein SEQ ID NO:3 expressed from doxycycline inducible codon altered transgene SEQ ID NO:2 |  |  |  | 26.7% | 13.9% | 4.3%
